Measured values reported in patent US10669272B2, “Substituted naphthyridinone compounds useful as T cell activators” (BRISTOL-MYERS SQUIBB COMPANY, priority 2018, dated 2020).
Where two headings read alike, the source gives them in different places.

What was measured:
human DGKα = molecular target: T1, human DGKα (Homo sapiens, UniProt P23743); test: DGKα LIPGLO assay (extruded liposome substrate), in vitro DGK inhibition; assay type: biochemical; conditions: read-out: DGKa LIPGLO IC50
T1 construct: TVMV protease cleavage site (C); Hexa-His (C); made in house; host or cells: Sf9 insect cells (baculovirus, Bac-to-Bac)

human DGKζ = molecular target: T2, human DGKζ (Homo sapiens, UniProt Q13574); test: DGKζ LIPGLO assay (extruded liposome substrate), in vitro DGK inhibition; assay type: biochemical; conditions: read-out: DGKz LIPGLO IC50
T2 construct: TVMV protease cleavage site (C); Hexa-His (C); made in house; host or cells: Sf9 insect cells (baculovirus, Bac-to-Bac)

naïve human CD8 T cells = test: Human CD8 T cells IFN-γ assay; assay type: cell-based; conditions: normalized to 3 μM reference compound with anti-CD3 plus anti-CD28 as 100% activation, read-out: HuCD8 INFG Normalized EC50;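 further: Naïve human CD8 T cells stimulated with plate-bound anti-CD3 and soluble anti-CD28, IFN-γ in supernatant quantified by AlphaLISA and converted to pg/mL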
Human venous whole blood = test: Human whole blood IFN-γ assay; assay type: cell-based; conditions: human whole blood, read-out: INFg Whole Blood Normalized Agonist EC50;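 further: blood from healthy donors exposed to compound for 1 h before stimulation with anti-CD3 and anti-CD28 at 1 µg/mL each, IFN-γ quantified in supernatant by AlphaLISA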
Experimental: Human Whole Blood IFN-γ Assay
Human venous whole blood (22.5 μL per well), obtained from healthy donors, was pre-treated with compounds for one hour at 37° C. in a humidified 95% air/5% CO2 incubator. The blood was stimulated with 2.5 μL anti-human CD3 and anti-CD28 mAb at a final concentration of 1 μg/mL each for 24 hours at 37° C. IFN-γ in the supernatants was measured using AlphLISA kit (Cat # AL217).

[1] = normalized to 3 μM reference compound with anti-CD3 plus anti-CD28 as 100% activation
[2] = Homo sapiens, 24 h, normalized to 3 μM reference compound with anti-CD3 plus anti-CD28 as 100% activation

T1 sequence (P23743 with tags, fused parts or gaps): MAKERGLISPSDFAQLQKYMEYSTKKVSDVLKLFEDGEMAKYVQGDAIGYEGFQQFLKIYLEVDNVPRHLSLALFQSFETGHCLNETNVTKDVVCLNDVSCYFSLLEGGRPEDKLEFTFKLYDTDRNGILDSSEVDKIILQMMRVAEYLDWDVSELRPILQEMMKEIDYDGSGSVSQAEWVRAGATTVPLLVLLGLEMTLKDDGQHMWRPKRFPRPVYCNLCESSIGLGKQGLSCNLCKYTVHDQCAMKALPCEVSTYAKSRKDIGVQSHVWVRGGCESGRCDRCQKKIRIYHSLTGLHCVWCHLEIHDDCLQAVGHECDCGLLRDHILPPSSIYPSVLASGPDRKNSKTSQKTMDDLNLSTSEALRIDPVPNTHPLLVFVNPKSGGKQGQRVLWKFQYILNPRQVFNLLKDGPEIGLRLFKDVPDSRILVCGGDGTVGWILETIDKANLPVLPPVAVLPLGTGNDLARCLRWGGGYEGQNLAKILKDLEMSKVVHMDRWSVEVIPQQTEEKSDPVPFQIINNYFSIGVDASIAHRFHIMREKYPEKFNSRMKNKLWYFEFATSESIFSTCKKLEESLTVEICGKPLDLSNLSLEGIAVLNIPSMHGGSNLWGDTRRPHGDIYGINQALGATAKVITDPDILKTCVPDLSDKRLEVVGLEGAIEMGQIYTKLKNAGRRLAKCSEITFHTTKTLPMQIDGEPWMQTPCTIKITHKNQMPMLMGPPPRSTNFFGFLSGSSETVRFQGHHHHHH
T2 sequence (Q13574 with tags, fused parts or gaps isoform Q13574-4): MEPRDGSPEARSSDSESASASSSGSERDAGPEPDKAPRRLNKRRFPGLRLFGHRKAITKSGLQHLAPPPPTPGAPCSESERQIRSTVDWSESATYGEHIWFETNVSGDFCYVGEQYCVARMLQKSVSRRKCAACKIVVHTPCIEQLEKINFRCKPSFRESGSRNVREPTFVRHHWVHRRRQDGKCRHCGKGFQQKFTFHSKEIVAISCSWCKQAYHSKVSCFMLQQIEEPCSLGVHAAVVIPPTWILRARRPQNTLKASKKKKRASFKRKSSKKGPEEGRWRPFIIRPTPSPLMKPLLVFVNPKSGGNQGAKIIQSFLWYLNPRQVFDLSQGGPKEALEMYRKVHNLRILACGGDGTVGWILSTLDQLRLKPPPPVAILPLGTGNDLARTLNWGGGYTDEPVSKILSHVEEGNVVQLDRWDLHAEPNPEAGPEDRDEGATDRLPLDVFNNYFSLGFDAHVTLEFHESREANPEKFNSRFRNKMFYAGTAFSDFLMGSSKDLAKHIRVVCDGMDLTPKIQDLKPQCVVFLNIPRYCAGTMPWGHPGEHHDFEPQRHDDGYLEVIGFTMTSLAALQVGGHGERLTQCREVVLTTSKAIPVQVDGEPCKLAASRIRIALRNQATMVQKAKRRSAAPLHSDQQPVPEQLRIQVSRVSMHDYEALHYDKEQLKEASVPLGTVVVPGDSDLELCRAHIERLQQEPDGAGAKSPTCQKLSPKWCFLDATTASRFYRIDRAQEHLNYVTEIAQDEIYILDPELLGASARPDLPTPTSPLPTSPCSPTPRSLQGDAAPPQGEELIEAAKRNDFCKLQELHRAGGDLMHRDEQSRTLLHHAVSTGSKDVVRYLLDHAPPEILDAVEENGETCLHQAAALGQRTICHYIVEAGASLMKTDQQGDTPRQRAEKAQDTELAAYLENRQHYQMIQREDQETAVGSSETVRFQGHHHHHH

Cn1c(=O)cc(N2CCN(C(c3ccc(F)cc3)c3ccc(F)cc3)CC2C(=O)NC2CC2)c2nc(C#N)ccc21 (single isomer, unassigned) [Example 140, 4-(bis(4-fluorophenyl)methyl)-1-(6-cyano-1-methyl-2-oxo-1,2-dihydro-1,5-naphthyridin-4-yl)-N-cyclopropylpiperazine-2-carboxamide] showed an IC50 (human DGKα; liposome (LIPGLO) assay) of 150 µM, an IC50 (human DGKζ; liposome (LIPGLO) assay) of 25 µM and an EC50 (naïve human CD8 T cells) of 6.6 µM.

For Cn1c(=O)cc(N2CCN(C(c3ccc(F)cc3)c3ccc(F)cc3)CC2CF)c2nc(C#N)ccc21 (single isomer, unassigned) [Example 150, 8-(4-(bis(4-fluorophenyl)methyl)-2-(fluoromethyl)piperazin-1-yl)-5-methyl-6-oxo-5,6-dihydro-1,5-naphthyridine-2-carbonitrile], the IC50 (human DGKα; liposome (LIPGLO) assay) was 240 µM, the IC50 (human DGKζ; liposome (LIPGLO) assay) was 29 µM and the EC50 (naïve human CD8 T cells) was 10 µM.

Compound COc1ccc2c(n1)c(N1C[C@@H](C)N(C(c3ccc(F)cc3)c3ccc(Cl)cc3)C[C@@H]1C)cc(=O)n2C (stereo partly drawn) [Example 240, 4-[(2S,5R)-4-[(4-chlorophenyl)(4-fluorophenyl)methyl]-2,5-dimethylpiperazin-1-yl]-6-methoxy-1-methyl-1,2-dihydro-1,5-naphthyridin-2-one] has an IC50 (human DGKα; liposome (LIPGLO) assay) of 15 µM, an IC50 (human DGKζ; liposome (LIPGLO) assay) of 20 µM and an EC50 (naïve human CD8 T cells; Homo sapiens, T-cell, 20 h) of 12 µM.

In the case of COc1ccc2c(n1)c(N1C[C@@H](C)N(C(c3ccccc3)c3ccc(F)cc3)C[C@@H]1C)cc(=O)n2C (single isomer, unassigned) [Example 238], the IC50 (human DGKα; liposome (LIPGLO) assay) is reported as 17 µM, the IC50 (human DGKζ; liposome (LIPGLO) assay) is reported as 79 µM and the EC50 (naïve human CD8 T cells; Homo sapiens, T-cell, 20 h) is reported as 5 µM.

CC(C)OC(=O)C1CN(c2cc(=O)n(C)c3ccc(C#N)nc23)CCN1C(c1ccc(F)cc1)c1ccc(F)cc1 (single isomer, unassigned) [Example 62, Isopropyl 1-(bis(4-fluorophenyl)methyl)-4-(6-cyano-1-methyl-2-oxo-1,2-dihydro-1,5-naphthyridin-4-yl)piperazine-2-carboxylate] was tested, and the IC50 (human DGKα; liposome (LIPGLO) assay) was 240 µM, the IC50 (human DGKζ; liposome (LIPGLO) assay) was 15 µM and the EC50 (naïve human CD8 T cells) was 1.8 µM.

With COC(=O)C1CN(c2c(F)c(=O)n(C)c3ccc(C#N)nc23)CCN1C(c1ccc(Cl)cc1)c1ccc(Cl)cc1 (single isomer, unassigned) [Example 94, methyl 1-(bis(4-chlorophenyl)methyl)-4-(6-cyano-3-fluoro-1-methyl-2-oxo-1,2-dihydro-1,5-naphthyridin-4-yl)piperazine-2-carboxylate] the IC50 (human DGKα; liposome (LIPGLO) assay) was 27 µM, the IC50 (human DGKζ; liposome (LIPGLO) assay) was 4.4 µM and the EC50 (naïve human CD8 T cells) was 0.4 µM.

Cn1c(=O)cc(N2CCN(C(c3ccc(F)cc3)c3ccc(F)cc3)C(C)(C)C2)c2nc(C#N)ccc21 [Example 171, 8-(4-(bis(4-fluorophenyl)methyl)-3,3-dimethylpiperazin-1-yl)-5-methyl-6-oxo-5,6-dihydro-1,5-naphthyridine-2-carbonitrile] gave an IC50 (human DGKα; liposome (LIPGLO) assay) of 0.24 µM, an IC50 (human DGKζ; liposome (LIPGLO) assay) of 94 µM and an EC50 (naïve human CD8 T cells; Homo sapiens, T-cell, 20 h) of 10 µM.

Cn1c(=O)c(C#N)c(N2CCN(C(c3ccc(F)cc3)c3ccc(F)cc3)C(C(N)=O)C2)c2nc(C#N)ccc21 (single isomer, unassigned) [Example 57, 1-(bis (4-fluorophenyl)methyl)-4-(3,6-dicyano-1-methyl-2-oxo-1,2-dihydro-1,5-naphthyridin-4-yl)piperazine-2-carboxamide] gave an IC50 (human DGKα; liposome (LIPGLO) assay) of 52 µM, an IC50 (human DGKζ; liposome (LIPGLO) assay) of 140 µM and an EC50 (naïve human CD8 T cells; Homo sapiens, T-cell, 20 h) of 6 µM.

For Cn1c(=O)cc(N2CCN(C(c3ccc(F)cc3)c3ccc(F)cc3)C(C(=O)O)C2)c2nc(C#N)ccc21 (stereo not drawn) [Example 55, 1-(bis(4-fluorophenyl)methyl)-4-(6-cyano-1-methyl-2-oxo-1,2-dihydro-1,5-naphthyridin-4-yl)piperazine-2-carboxylic acid], the IC50 (human DGKα; liposome (LIPGLO) assay) was 240 µM, the IC50 (human DGKζ; liposome (LIPGLO) assay) was 180 µM and the EC50 (naïve human CD8 T cells; Homo sapiens, T-cell, 20 h) was 6.4 µM.

Compound Cn1c(=O)cc(N2CCN(C(c3ccc(F)cc3)c3ccc(F)cc3)CC2CO)c2nc(C#N)ccc21 (single isomer, unassigned) [Example 148, 8-(4-(bis(4-fluorophenyl)methyl)-2-(hydroxymethyl)piperazin-1-yl)-5-methyl-6-oxo-5,6-dihydro-1,5-naphthyridine-2-carbonitrile] has an IC50 (human DGKα; liposome (LIPGLO) assay) of 240 µM, an IC50 (human DGKζ; liposome (LIPGLO) assay) of 75 µM and an EC50 (naïve human CD8 T cells) of 0.42 µM.

For Cn1c(=O)cc(N2CCN(C(c3ccc(F)cc3)c3ccc(F)cc3)C(C(=O)NC3CC3)C2)c2nc(C#N)ccc21 (single isomer, unassigned) [Example 48, 1-(bis(4-fluorophenyl)methyl)-4-(6-cyano-1-methyl-2-oxo-1,2-dihydro-1,5-naphthyridin-4-yl)-N-cyclopropylpiperazine-2-carboxamide], the IC50 (human DGKα; liposome (LIPGLO) assay) was 240 µM, the IC50 (human DGKζ; liposome (LIPGLO) assay) was 20 µM and the EC50 (naïve human CD8 T cells) was 3.8 µM.

Cn1c(=O)cc(N2CCN(C(c3ccc(F)cc3)c3ccc(F)cc3)CC2C(=O)O)c2nc(C#N)ccc21 (stereo not drawn) [Example 138, 4-(bis(4-fluorophenyl)methyl)-1-(6-cyano-1-methyl-2-oxo-1,2-dihydro-1,5-naphthyridin-4-yl)piperazine-2-carboxylic acid] was tested, and the IC50 (human DGKα; liposome (LIPGLO) assay) was 82 µM, the IC50 (human DGKζ; liposome (LIPGLO) assay) was 95 µM and the EC50 (naïve human CD8 T cells; Homo sapiens, T-cell, 20 h) was 10 µM.

With COC(=O)C1CN(c2cc(=O)n(C)c3ccc(C#N)nc23)CCN1C(c1ccc(F)cc1)c1ccc(F)cc1OC (single isomer, unassigned) [Example 67, Methyl 4-(6-cyano-1-methyl-2-oxo-1,2-dihydro-1,5-naphthyridin-4-yl)-1-((4-fluoro-2-methoxyphenyl)(4-fluorophenyl)methyl)piperazine-2-carboxylate] the IC50 (human DGKα; liposome (LIPGLO) assay) was 48 µM, the IC50 (human DGKζ; liposome (LIPGLO) assay) was 0.92 µM and the EC50 (naïve human CD8 T cells) was 0.03 µM.

Work on Cn1c(=O)cc(N2CCN(C(c3ccc(F)cc3)c3ccc(F)cc3)CC2CO)c2nc(C#N)ccc21 (single isomer, unassigned) [Example 147, 8-(4-(bis(4-fluorophenyl)methyl)-2-(hydroxymethyl)piperazin-1-yl)-5-methyl-6-oxo-5,6-dihydro-1,5-naphthyridine-2-carbonitrile] yielded an IC50 (human DGKα; liposome (LIPGLO) assay) of 48 µM, an IC50 (human DGKζ; liposome (LIPGLO) assay) of 15 µM and an EC50 (naïve human CD8 T cells) of 2 µM.

Cn1c(=O)cc(N2CCN(C(c3ccc(F)cc3)c3ccc(F)cc3)CC2C#N)c2nc(C#N)ccc21 (single isomer, unassigned) [Example 144, 8-(4-(bis(4-fluorophenyl)methyl)-2-cyanopiperazin-1-yl)-5-methyl-6-oxo-5,6-dihydro-1,5-naphthyridine-2-carbonitrile] was tested, and the IC50 (human DGKα; liposome (LIPGLO) assay) was 1.4 µM, the IC50 (human DGKζ; liposome (LIPGLO) assay) was 2.4 µM and the EC50 (naïve human CD8 T cells; Homo sapiens, T-cell, 20 h) was 1.2 µM.

For Cn1c(=O)c(C#N)c(N2CCN(C(c3ccc(F)cc3)c3ccc(F)cc3)C(C(=O)O)C2)c2nc(C#N)ccc21 (single isomer, unassigned) [Example 53, 1-(bis(4-fluorophenyl)methyl)-4-(3,6-dicyano-1-methyl-2-oxo-1,2-dihydro-1,5-naphthyridin-4-yl)piperazine-2-carboxylic acid], the IC50 (human DGKα; liposome (LIPGLO) assay) was 140 µM, the IC50 (human DGKζ; liposome (LIPGLO) assay) was 94 µM and the EC50 (naïve human CD8 T cells; Homo sapiens, T-cell, 20 h) was 10 µM.

Cn1c(=O)c(C#N)c(N2CCN(C(c3ccc(F)cc3)c3ccc(F)cc3)CC2CO)c2nc(Br)ccc21 (stereo not drawn) [Example 118, 4-(4-(bis(4-fluorophenyl)methyl)-2-(hydroxymethyl)piperazin-1-yl)-6-bromo-1-methyl-2-oxo-1,2-dihydro-1,5-naphthyridine-3-carbonitrile] was tested, and the IC50 (human DGKα; liposome (LIPGLO) assay) was 10 µM, the IC50 (human DGKζ; liposome (LIPGLO) assay) was 63 µM and the EC50 (naïve human CD8 T cells; Homo sapiens, T-cell, 20 h) was 0.71 µM.

COC(=O)C1CN(C(c2ccc(F)cc2)c2ccc(F)cc2)CCN1c1cc(=O)n(C)c2ccc(C#N)nc12 (single isomer, unassigned) [Example 137, Methyl 4-(bis(4-fluorophenyl)methyl)-1-(6-cyano-1-methyl-2-oxo-1,2-dihydro-1,5-naphthyridin-4-yl)piperazine-2-carboxylate] gave an IC50 (human DGKα; liposome (LIPGLO) assay) of 240 µM, an IC50 (human DGKζ; liposome (LIPGLO) assay) of 33 µM and an EC50 (naïve human CD8 T cells) of 1.5 µM.

With C[C@@H]1CN(c2c(C#N)c(=O)n(C)c3ccc(C#N)nc23)CCN1C(c1ccc(F)cc1)c1ccccc1F (stereo partly drawn) [Example 883] the IC50 (human DGKα; DGKα liposome (LIPGLO) assay) was 1.5 µM, the IC50 (human DGKζ; DGKζ liposome (LIPGLO) assay) was 0.84 µM and the EC50 (Human venous whole blood; anti-CD3 plus anti-CD28, 24 hours, 3 μM reference compound = 100% activation) was 0.83 µM.

Compound COc1cccc(C(c2ccc(F)cc2)N2C[C@H](C)N(c3cc(=O)n(C)c4ccc(C#N)nc34)C[C@H]2C)c1 (single isomer, unassigned) [Example 661] has an IC50 (human DGKα; liposome (LIPGLO) assay) of 4.1 µM, an IC50 (human DGKζ; liposome (LIPGLO) assay) of 1.7 µM and an EC50 (Human venous whole blood; [1]) of 1 µM.

Work on CC(C)c1ccc(CN2C[C@H](C)N(c3cc(=O)n(C)c4ccc(C#N)nc34)C[C@H]2C)cc1 [Example 602] yielded an IC50 (human DGKα; liposome (LIPGLO) assay) of 0.85 µM, an IC50 (human DGKζ; liposome (LIPGLO) assay) of 3.7 µM and an EC50 (Human venous whole blood; [2]) of 1.1 µM.

Work on CC[C@H]1CN(C(c2cccc(F)c2)c2ccc(C)cn2)[C@H](C)CN1c1cc(=O)n(C)c2ccc(C#N)nc12 (single isomer, unassigned) [Example 1126] yielded an IC50 (human DGKα; liposome (LIPGLO) assay) of 1.2 µM, an IC50 (human DGKζ; liposome (LIPGLO) assay) of 3 µM and an EC50 (Human venous whole blood; [1]) of 0.95 µM.

With Cc1ccc(C(c2ccc(C)cc2)N2C[C@@H](C)N(c3cc(=O)n(C)c4ccc(C#N)nc34)C[C@@H]2CO)cc1 [Example 1173] the IC50 (human DGKα; liposome (LIPGLO) assay) was 10 µM, the IC50 (human DGKζ; liposome (LIPGLO) assay) was 0.98 µM and the EC50 (Human venous whole blood; [2]) was 1.4 µM.

CC[C@H]1CN(C(C)c2ccc(F)cc2)[C@H](CC)CN1c1cc(=O)n(C)c2ccc(C#N)nc12 (single isomer, unassigned) [Example 1049] showed an IC50 (human DGKα; liposome (LIPGLO) assay) of 0.015 µM, an IC50 (human DGKζ; liposome (LIPGLO) assay) of 0.042 µM and an EC50 (Human venous whole blood; [1]) of 0.13 µM.

Work on [2H]C(C)(c1ccc(F)cc1)N1C[C@H](C)N(c2c(F)c(=O)n(C)c3ccc(C#N)nc23)C[C@H]1C (single isomer, unassigned) [Example 424] yielded an IC50 (human DGKα; liposome (LIPGLO) assay) of 0.29 µM, an IC50 (human DGKζ; liposome (LIPGLO) assay) of 37 µM and an EC50 (Human venous whole blood; [1]) of 16 µM.
